From US11590129B2, “Combination therapy with an antitumor alkaloid” (PHARMA MAR, S.A., priority 2010, dated 2023)
pIC50: −log10 of the molar value.

How the values were obtained:
[1] = tested on: HGC-27 human gastric carcinoma cell line; assay: cells; conditions: Homo sapiens, HGC-27, 72 h
[2] = tested on: A673 human rhabdomyosarcoma cell line; assay: cells; conditions: Homo sapiens, A673, 72 h
Outline: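 A673 cells seeded at 5,000 per well, grown 24 h drug-free, then exposed to compounds for 72 h. Viability by MTT reduction (8 h, 37 °C), formazan dissolved in DMSO. Results expressed as percentage of control cell growth.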

[3] = tested on: SK-MEL-2 human melanoma cell line; assay: cells; conditions: Homo sapiens, SK-MEL-2, 72 h
Outline: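 SK-MEL-2 melanoma cells (5,000/well) grown 24 h drug-free, then exposed 72 h to vehicle or test compounds. Viability by MTT reduction (8 h, 37 °C), formazan dissolved in DMSO; results expressed as percentage of control cell growth.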

HT1080 tumors = assay: Human fibrosarcoma (HT1080) orthotopically implanted in athymic nude mice, total diameter (tumor+leg) % T/C; format: in vivo
Procedure: Female athymic nude mice (Harlan Laboratories Models, S.L. (Barcelona, Spain) were utilized for all experiments. Animals were housed in individually ventilated cages, up to ten per cage in a 12-hour light-dark cycle at 21-23° C. and 40-60% humidity. The mice were allowed free access to irradiated standard rodent diet and sterilized water. Animals were acclimated for at least 5 days prior to tumor implantation with a tumor cell suspension.
HT1080 cells were grown at 37° C. with 5% CO2 in Minimum Essential Medium Eagle (MEME). Each animal was orthotopically implanted into gastroecnemius muscle by an intramuscular injection using 26G needle and a 1 cc syringe, with 5×10^6 HT1080 cells, from in vitro passage 9, suspended in serum free medium, without antibiotics.
Total diameter (tumor+leg) measurements were determined by using digital caliper (Fowler Sylvac, S235PAT). This total diameter and animal body weights were measured 2-3 times per week starting from the first day of treatment.
Treatment tolerability was assessed by monitoring body weight evolution, clinical signs as well as evidences of local damage in the injection site.
PM01183 was provided in the form of vials of lyophilized PM01183 cake which was reconstituted with water for infusion to a concentration of 0.2 mg/mL. The PM01183 stock solution was further diluted in 5% glucose solution for injection to the dosing formulation concentrations. Dacarbazine was provided in the form of a solution prepared by diluting the product with 5% glucose solution for injection to the target final concentration.
Dose level groups were administered either as single agents or in combination.
Comparison of the median total diameter (tumor+leg) in the treatment groups (T) to the median total diameter (tumor+leg) in the control group (T/C×100%) was used for evaluation of the antitumor efficacy.

[4] = PM01183 0.135 mg/kg iv days 0,7

## COc1ccc2[nH]c3c(c2c1)CCN[C@]31CS[C@@H]2c3c(OC(C)=O)c(C)c4c(c3[C@H](COC1=O)N1[C@@H]2[C@H]2c3c(cc(C)c(OC)c3O)C[C@@H]([C@@H]1O)N2C)OCO4 [PM01183]
[1]
  pIC50: 9.07
[2]
  pIC50: 8.66
[3]
  pIC50: 8.70
HT1080 tumors; PM01183 0.045 mg/kg
  % T/C on day 0: 100%
  % T/C on day 2: 77.8%
  % T/C on day 4: 74.3%
  % T/C on day 7: 94.2%
  % T/C on day 9: 80.0%
  % T/C on day 11: 74.0%
  % T/C on day 14: 80.5%
  % T/C on day 16: 91.1%
HT1080 tumors; PM01183 0.09 mg/kg
  % T/C on day 0: 100%
  % T/C on day 2: 66.7%
  % T/C on day 4: 57.1%
  % T/C on day 7: 65.4%
  % T/C on day 9: 48.0%
  % T/C on day 11: 42.7%
  % T/C on day 14: 45.8%
  % T/C on day 16: 56.4%
HT1080 tumors; [4]
  % T/C (median total diameter, tumor+leg) on day 9: 36.0%
  % T/C (median total diameter, tumor+leg) on day 11: 30.2%
  % T/C (median total diameter, tumor+leg) on day 14: 33.0%
  % T/C (median total diameter, tumor+leg) on day 16: 41.9%
HT1080 tumors; PM01183 0.135 mg/kg
  % T/C on day 0: 100%
  % T/C on day 2: 63.0%
  % T/C on day 4: 62.9%
  % T/C on day 7: 48.1%
  % T/C on day 9: 36.0%
  % T/C on day 11: 30.2%
  % T/C on day 14: 33.0%
  % T/C on day 16: 41.9%
HT1080 tumors; PM01183 0.18 mg/kg iv days 0,7
  % T/C (median total diameter, tumor+leg) on day 9: 26.7%
  % T/C (median total diameter, tumor+leg) on day 11: 11.5%
  % T/C (median total diameter, tumor+leg) on day 14: 21.2%
  % T/C (median total diameter, tumor+leg) on day 16: 30.6%
HT1080 tumors; PM01183 0.18 mg/kg
  % T/C on day 0: 100%
  % T/C on day 2: 59.3%
  % T/C on day 4: 40.0%
  % T/C on day 7: 26.9%
  % T/C on day 9: 26.7%
  % T/C on day 11: 11.5%
  % T/C on day 14: 21.2%
  % T/C on day 16: 30.6%
